Source: article PMC10489073 (Molecules, 2023)

What was measured:
Human CD13 = biological target: T1, Human CD13 (Homo sapiens, UniProt P15144); assay: CD13 inhibition assay (recombinant human aminopeptidase, L-leucine-p-nitroanilide); type: biochemical; conditions: mean ± SD, n ≥ 3; read-out: IC50 toward Human CD13
T1 construct: purchased R&D systems
Experimental: L-leucine-p-nitroanilide can be degraded by recombinant human aminopeptidase (R&D systems) or procine aminopeptidase (Sigma Chemical Co., St. Louis, MO, USA) and produce light absorption at 405 nm. The CD13 inhibitory activity of synthetic compounds was identified according to the degree of degradation of L-leucine-p-nitroanilide. L-leucine-p-nitroanilide was dissolved in DMSO and mixed with tested compounds in a transparent 96-well plate; then, aminopeptidase was added using phosphate solution (pH 7.2) as the assay buffer. After incubation at 37 °C for 30 min, the absorption was detected under a 405 nm wavelength via Tecan Spark multimode microplate.

In vivo pharmacokinetics = conditions: SD rats; for AUC(0-inf): SD
Experimental: The animal experiments were conducted under the guidelines of the “Regulations for the Administration of Affairs Concerning Experimental Animals” (revised 2017, State Council No. 676). The pharmacokinetic properties (PK) were performed in SD rats, and the procedures conducted were in accordance with institutional guidelines. Male SD rats (weighting 200 ± 20 g) fasted for 12 h and were divided into two groups, three in each group: oral administration of BC-05 (10 mg/kg) and intravenous administration of BC-05 (10 mg/kg). A total of 300 μL of a blood sample was collected through retro-orbital plexus from the rats in each group at 0 h, 0.033 h, 0.167 h, 0.5 h, 0.75 h, l h, 2 h, 4 h, 6 h, 8 h, 10 h, and 24 h. Plasma samples were placed in microcentrifuge tubes containing Li-heparin to avoid coagulant, separated by centrifugation at 12,000 rpm for 10 min, and stored at −80 °C until sample analysis. After the precipitation of proteins, samples were centrifuged at 15,000 rpm for 10 min, and the supernatant was reserved for HPLC-MS/MS analysis.

HL-7702 = assay: Cell proliferation analysis (MTT), normal cells; type: cell-based; conditions: Homo sapiens, L02, non-malignant cell line, 48 h, read-out: Anti-proliferative activity IC50, HL-7702
Experimental: (§1) All tumor cell lines in the current research were grown in a certain growth medium containing 10% FBS and 1% (v/v/v) penicillin–streptomycin–amphotericin at 37 °C in 5% CO2. Cells were seeded into 96-well plates at a density of 8 × 10^3 cells per well for tumor adherent cells and 2 × 10^4 cells per well for tumor-suspended cells in a final volume of 100 μL. After 12 h, 100 μL of various concentrations of compounds was added to each and incubated for 48 h. A 0.5% MTT solution was added per well before the intermixture was incubated for another 4 h, and formazan formed from MTT was extracted by adding […] of DMSO rocking for 15 min. Absorbance was measured at 570 nm using a Spark multimode microplate from Tecan. The IC50 values were calculated according to the inhibition ratios.

HEK293 = assay: Cell proliferation analysis (MTT), normal cells; type: cell-based; conditions: Homo sapiens, non-malignant cell line, 48 h, read-out: Anti-proliferative activity IC50, HEK293
Experimental: as §1

[1] = system: P21WAF1/Cip1 in MM1.S cells; assay: Western blot analysis, P21; type: cell-based; conditions: 24 h
Experimental: MM1.S cells were seeded in 6-well plates with a density of 2.5 × 10^6 cells/well. Then, the cells were cultured with 1, 2, and 4 μM BC-05 and 10 nM ixazomib, respectively. After incubation for 24 h, the cells were collected, and total proteins were extracted via RIPA containing a 2% protease inhibitor cocktail. Cell lysates were centrifugated at 4 °C, 12,000 rpm for 15 min, and the supernatants were collected and quantified with BCA assay. After being boiled at 100 °C for 10 min in a NuPAGE lithium dodecyl sulfate (LDS) sample buffer (5X), equivalent samples were separated by 12% sodium dodecyl-sulfate polyacrylamide gel electrophoresis at 120 V, transferred to immune-blot poly(vinylidene fluoride) (PVDF) membranes (Merck Millipore, Burlington, MA, USA) at 4 °C and then blocked by 5% non-fat milk in TBST for an hour. The membranes were incubated overnight at 4 °C with certain primary antibodies, which were deliquates by an antibody dilution buffer (Boster Bio, Pleasanton, CA, USA) and then washed with TBST. After incubating with a horseradish (HRP)-conjugated secondary antibody for 1 h at room temperature, the membranes were washed five times with TBST for 5 min. The images were visualized on the Tanon-5200 Chemiluminescent Imaging System via luminol reaction. […]

[2] = system: subcutaneous P3x63Ag8.653 tumor; assay: In vivo P3x63Ag8.653 tumor transplant model; parameters: species or system mice
Experimental: The animal experiments were conducted under the guidelines of the “Regulations for the Administration of Affairs Concerning Experimental Animals” (revised 2017, State Council No. 676). For the P3x63Ag8.653 tumor development, male mice were subcutaneously injected with 200 μL murine P3x63Ag8.653 cells with a density of 1 × 10^7/mL. On the eighth day after injection, the transplanted mice were randomized into treatment and control groups. The tested compounds were administrated orally at the prescribed dose biweekly for two weeks. After two weeks of administration, mice were executed, and the tumor tissues were dissected and weighed. T/C was calculated according to the following formula: T/C = the mean RTV of the treated group/the mean RTV of the control group, where RTV is the relative tumor volume = Vt/V0 (Vt, the tumor volume measured at the end of treatment; V0, the tumor volume measured at the beginning of treatment).

[3] = male, rat, plasma, iv, i.v. at 10 mg/kg, n = 3
[4] = male, rat, plasma, oral at 10 mg/kg, n = 3

T1 sequence (P15144 whole entry): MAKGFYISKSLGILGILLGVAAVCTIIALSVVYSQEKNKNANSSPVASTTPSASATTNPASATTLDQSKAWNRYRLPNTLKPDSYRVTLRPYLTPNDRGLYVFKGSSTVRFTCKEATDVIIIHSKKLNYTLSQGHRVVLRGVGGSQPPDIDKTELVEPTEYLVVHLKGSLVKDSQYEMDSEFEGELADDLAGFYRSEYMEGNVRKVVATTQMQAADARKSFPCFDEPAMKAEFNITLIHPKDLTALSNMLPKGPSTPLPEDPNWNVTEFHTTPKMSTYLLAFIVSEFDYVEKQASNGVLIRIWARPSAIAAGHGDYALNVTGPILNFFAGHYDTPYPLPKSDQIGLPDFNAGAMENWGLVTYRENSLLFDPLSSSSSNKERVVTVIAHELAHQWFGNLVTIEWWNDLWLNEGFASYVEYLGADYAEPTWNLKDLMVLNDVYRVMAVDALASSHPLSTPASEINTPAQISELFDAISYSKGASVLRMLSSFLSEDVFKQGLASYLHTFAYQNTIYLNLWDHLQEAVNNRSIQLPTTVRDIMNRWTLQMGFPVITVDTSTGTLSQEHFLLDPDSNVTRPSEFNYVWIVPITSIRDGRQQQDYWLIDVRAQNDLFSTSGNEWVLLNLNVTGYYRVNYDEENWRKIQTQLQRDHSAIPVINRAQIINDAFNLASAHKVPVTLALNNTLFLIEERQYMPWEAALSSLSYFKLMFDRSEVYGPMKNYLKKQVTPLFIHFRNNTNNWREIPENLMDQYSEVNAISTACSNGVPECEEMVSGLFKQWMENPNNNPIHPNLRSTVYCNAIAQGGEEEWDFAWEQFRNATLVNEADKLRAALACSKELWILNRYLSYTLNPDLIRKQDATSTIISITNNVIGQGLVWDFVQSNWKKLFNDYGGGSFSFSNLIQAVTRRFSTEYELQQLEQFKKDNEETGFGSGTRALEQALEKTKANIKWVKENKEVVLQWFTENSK

In the case of CC(C)C[C@H](NC(=O)[C@@H](O)[C@H](N)Cc1ccccc1)B1OC(=O)C(CC(=O)O)(CC(=O)O)O1 [BC-05, 2,2′-(2-((R)-1-((2S,3R)-3-amino-2-hydroxy-4-phenylbutanamido)-3-methylbutyl)-5-oxo-1,3,2-dioxaborolane-4,4-diyl)diacetic acid], the IC50 (Human CD13) is reported as 130 ± 10 nM, the CL (In vivo pharmacokinetics; oral at 10 mg/kg, n = 3) is reported as 7.69 ± 0.66 L/h/kg and the “AUC0–∞” value (In vivo pharmacokinetics; oral at 10 mg/kg, n = 3, 10 mg/kg) is reported as 1307.71 ± 116.74 μg/L∗h. For the same compound, the AUC(0-inf) (In vivo pharmacokinetics; male, rat, plasma, iv, 10 mg/kg, i.v. at 10 mg/kg, n = 3) was 5150 ± 482 ng·h/mL, the AUC(0-inf) (In vivo pharmacokinetics; male, rat, plasma, po, 10 mg/kg, oral at 10 mg/kg, n = 3) was 1310 ng·h/mL and the Cmax (In vivo pharmacokinetics; [3]) was 10500 ng/mL. For the same compound, the Tmax (In vivo pharmacokinetics; [3]) was 0.03 h, the clearance (In vivo pharmacokinetics; [3]) was 32.5 mL/min/kg and the half-life (In vivo pharmacokinetics; [3]) was 103 ± 40.2 min. For the same compound, the bioavailability (In vivo pharmacokinetics; male, rat, plasma, oral at 10 mg/kg vs i.v. 10 mg/kg, read-out: F (oral bioavailability)) was 24.9 ± 4.32%, the Cmax (In vivo pharmacokinetics; [4]) was 373 ± 49.6 ng/mL and the Tmax (In vivo pharmacokinetics; [4]) was 2 h. It also gave a half-life (In vivo pharmacokinetics; [4]) of 141 ± 73.8 min, an IC50 (HL-7702) greater than 200 µM and an IC50 (HEK293) greater than 200 µM. For the same compound, the “P21WAF1/Cip1 level (Western blot)” value [1] was “significantly upregulates”, the “T/C (relative tumor volume)” value ([2]; 0.008 mmol/kg oral, two weeks) was 31.2% and the “body weight loss and side effects” value ([2]; tumor-bearing mice, during oral administration) was “No obvious body weight loss and discernible side effects”.
